From ChEMBL document CHEMBL1201862, “PubChem BioAssay data set” (2004)
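Five compound concentrations were applied to cells in 96-well plates for 48 hours; endpoints were derived by simple linear interpolation of the resulting dose-response curve. GI50: concentration for 50% inhibition of growth.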 Calls of active or inactive are those of the source. No stated cut-off is given here; in the data, active = GI50 up to about 1.1 µM and inactive = higher.

Legend:
Experiment in all cases: growth of human tumour cells (NCI), 48 h
A498 = system: A498
CCRF-CEM = system: CCRF-CEM
K562 = system: K562
KM12 = system: KM12
M14 = system: M14
SF-539 = system: SF-539
SK-MEL-28 = system: SK-MEL-28
SK-MEL-2 = system: SK-MEL-2
SN12C = system: SN12C
SW-620 = system: SW-620
TK-10 = system: TK-10
UACC-62 = system: UACC-62
UO-31 = system: UO-31
OVCAR-5 = system: OVCAR-5

Measured: GI50

CCCCCCCCCCCCCCCCCC(=O)NCC(COP(=O)(O)O)OCC (configuration not stated)
inactive: A498 24.3 µM | CCRF-CEM > 100 µM | K562 > 100 µM | KM12 25 µM | M14 77.1 µM | SF-539 43.6 µM | SK-MEL-28 > 100 µM | SK-MEL-2 38.1 µM | SN12C 22 µM | SW-620 > 100 µM | TK-10 49.2 µM | UACC-62 54.3 µM | UO-31 34.1 µM

Cc1ccc(C(=O)O/N=C2/CCC/C2=C\c2ccccc2)cc1
inactive: A498 > 100 µM | CCRF-CEM > 100 µM | K562 > 100 µM | KM12 > 100 µM | M14 > 100 µM | OVCAR-5 > 100 µM | SF-539 > 100 µM | SK-MEL-28 > 100 µM | SK-MEL-2 > 100 µM | SN12C > 100 µM | SW-620 > 100 µM | TK-10 > 100 µM | UACC-62 > 100 µM | UO-31 > 100 µM

COc1ccc(/C=C/C(=O)c2sc(Nc3ccc([N+](=O)[O-])cc3)nc2C)cc1
inactive: A498 83.8 µM | CCRF-CEM 25.6 µM | K562 22.1 µM | KM12 27.4 µM | OVCAR-5 > 100 µM | SF-539 59.7 µM | SK-MEL-28 40.2 µM | SK-MEL-2 17.5 µM | SN12C 50.2 µM | SW-620 42.3 µM | TK-10 45.2 µM | UACC-62 29.9 µM | UO-31 25.4 µM

Cn1c(CBr)nc2c1C(=O)c1nc(CBr)[nH]c(=O)c1C2=O
inactive: A498 > 100 µM | CCRF-CEM 40.5 µM | K562 > 100 µM | M14 > 100 µM | SF-539 > 100 µM | SK-MEL-28 > 100 µM | SN12C > 100 µM | SW-620 > 100 µM | TK-10 > 100 µM | UACC-62 > 100 µM | UO-31 > 100 µM

CC(c1ccc(Br)cc1)C(C(=O)O)C(=O)O (configuration not stated)
inactive: CCRF-CEM > 100 µM | K562 > 100 µM | KM12 > 100 µM | M14 > 100 µM | OVCAR-5 > 100 µM | SK-MEL-28 > 100 µM | SK-MEL-2 > 100 µM | SN12C > 100 µM | SW-620 > 100 µM | TK-10 > 100 µM | UACC-62 > 100 µM | UO-31 > 100 µM

C#CCN(N=O)C(=O)NCCCC(NC(C)=O)C(=O)NCc1ccccc1 (configuration not stated)
inactive: A498 > 100 µM | CCRF-CEM 11.3 µM | K562 43.3 µM | KM12 > 100 µM | M14 > 100 µM | OVCAR-5 > 100 µM | SF-539 96.2 µM | SK-MEL-28 > 100 µM | SN12C > 100 µM | SW-620 92.5 µM | TK-10 > 100 µM | UACC-62 81.7 µM | UO-31 > 100 µM

CN1/C(=C/C(=O)c2ccc(Cl)cc2)Nc2ccccc21
inactive: CCRF-CEM 34.8 µM | K562 35.9 µM | KM12 42.4 µM | M14 67.3 µM | OVCAR-5 18.9 µM | SF-539 58.7 µM | SK-MEL-28 99.1 µM | SK-MEL-2 > 100 µM | SN12C 60.4 µM | SW-620 55.5 µM | UACC-62 44.3 µM | UO-31 13.2 µM

N#C/C(=C1\SC(/N=N/c2ccc(Cl)cc2)C(=O)N1c1ccccc1)c1nc2ccccc2[nH]1 (configuration not stated)
inactive: A498 29.7 µM | CCRF-CEM 16.9 µM | K562 14.1 µM | M14 20.1 µM | OVCAR-5 25.6 µM | SF-539 32.4 µM | SK-MEL-28 36 µM | SK-MEL-2 18.2 µM | SN12C 96.8 µM | SW-620 98.6 µM | TK-10 24.9 µM | UACC-62 31.4 µM | UO-31 19.8 µM

Cc1ccc(S(=O)(=O)NC(=O)C2S(=O)(=O)OCCOS2(=O)=O)cc1
inactive: CCRF-CEM > 100 µM | K562 > 100 µM | KM12 > 100 µM | M14 > 100 µM | SF-539 > 100 µM | SK-MEL-28 > 100 µM | SK-MEL-2 > 100 µM | SN12C > 100 µM | SW-620 > 100 µM | TK-10 > 100 µM | UACC-62 > 100 µM | UO-31 40.8 µM

CCOC(=O)c1[nH]c(COC(C)=O)c2c1CCCCCCCCCC2
inactive: A498 > 100 µM | CCRF-CEM > 100 µM | K562 > 100 µM | KM12 > 100 µM | M14 > 100 µM | OVCAR-5 > 100 µM | SF-539 > 100 µM | SK-MEL-2 > 100 µM | SN12C > 100 µM | SW-620 > 100 µM | TK-10 > 100 µM | UACC-62 > 100 µM | UO-31 > 100 µM

CN(C)c1ccc(/C=c2\sc3nnc(-c4cccnc4)n3c2=O)cc1
inactive: A498 > 100 µM | CCRF-CEM > 100 µM | K562 > 100 µM | KM12 > 100 µM | M14 > 100 µM | OVCAR-5 > 100 µM | SF-539 > 100 µM | SK-MEL-28 > 100 µM | SK-MEL-2 > 100 µM | SN12C > 100 µM | SW-620 > 100 µM | TK-10 > 100 µM | UACC-62 > 100 µM | UO-31 > 100 µM

CC(C)C(Sc1nc(-c2ccccc2)c(-c2ccccc2)[nH]1)c1n[nH]c(=S)n1-c1ccccc1 (configuration not stated)
inactive: A498 43.3 µM | CCRF-CEM 23.9 µM | KM12 16.1 µM | M14 19.2 µM | OVCAR-5 24.7 µM | SF-539 22.4 µM | SK-MEL-28 29.9 µM | SK-MEL-2 20.4 µM | SN12C 37.2 µM | SW-620 23.4 µM | TK-10 45 µM | UACC-62 11.5 µM | UO-31 22.8 µM

CSc1nc(NC2OCC(OC(C)=O)C(OC(C)=O)C2OC(C)=O)c(/N=C\C=N\c2c(NC3OCC(OC(C)=O)C(OC(C)=O)C3OC(C)=O)nc(SC)n(C)c2=O)c(=O)n1C (configuration not stated)
inactive: A498 > 100 µM | K562 > 100 µM | KM12 > 100 µM | M14 > 100 µM | OVCAR-5 > 100 µM | SF-539 > 100 µM | SK-MEL-28 > 100 µM | SK-MEL-2 > 100 µM | SN12C > 100 µM | SW-620 > 100 µM | TK-10 > 100 µM | UACC-62 > 100 µM | UO-31 > 100 µM

C=CC[P@@]1(=O)O[C@H](c2ccccc2)C(C)N1C(C)C (some centres not stated)
inactive: A498 > 100 µM | CCRF-CEM > 100 µM | K562 > 100 µM | KM12 > 100 µM | M14 > 100 µM | OVCAR-5 > 100 µM | SF-539 > 100 µM | SK-MEL-28 > 100 µM | SN12C > 100 µM | SW-620 > 100 µM | TK-10 > 100 µM | UACC-62 > 100 µM | UO-31 > 100 µM

COc1cc(/C=C/c2ccc(OC(C)=O)cc2)cc(OC)c1OC
inactive: A498 23.6 µM | CCRF-CEM 11.6 µM | K562 27.1 µM | KM12 32 µM | M14 27.9 µM | OVCAR-5 18 µM | SF-539 18.6 µM | SK-MEL-28 41.5 µM | SN12C 42 µM | SW-620 43.5 µM | TK-10 31.9 µM | UACC-62 15.4 µM | UO-31 21.1 µM
